# Test results published in ChEMBL document CHEMBL1144444, “Predictive three-dimensional quantitative structure-activity relationship of cytochrome P450 1A2 inhibitors” (J Med Chem, 2005).
# Biological target: T1, Cytochrome P450 1A2 (Homo sapiens, UniProt P05177)
# T1 sequence (P05177 whole entry): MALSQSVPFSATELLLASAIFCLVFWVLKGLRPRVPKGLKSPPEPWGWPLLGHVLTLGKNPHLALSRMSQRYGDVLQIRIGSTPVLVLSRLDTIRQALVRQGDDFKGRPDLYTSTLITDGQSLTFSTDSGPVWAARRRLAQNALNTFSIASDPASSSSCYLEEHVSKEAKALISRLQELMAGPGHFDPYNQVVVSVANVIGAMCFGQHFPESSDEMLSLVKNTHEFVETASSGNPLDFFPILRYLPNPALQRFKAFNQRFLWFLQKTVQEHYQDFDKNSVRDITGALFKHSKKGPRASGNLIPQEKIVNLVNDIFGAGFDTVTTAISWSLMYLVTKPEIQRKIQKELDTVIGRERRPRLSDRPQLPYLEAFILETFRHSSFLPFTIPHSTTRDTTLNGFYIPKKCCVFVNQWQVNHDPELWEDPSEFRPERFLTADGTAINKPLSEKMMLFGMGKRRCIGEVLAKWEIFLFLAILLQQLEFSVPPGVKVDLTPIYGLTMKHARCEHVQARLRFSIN
# Assay: Inhibitory concentration against recombinant human cytochrome P450 1A2
# Settings: not given
row,Structure (SMILES),IC50
1,CCc1ccc2ccccc2c1,19 µM
2,Cc1cc2ccccc2cn1,21 µM
3,CCCCC1CCCCC1 [BUTYLCYCLOHEXANE],55 µM
4,Cc1cccc2ccccc12,110 µM
5,Clc1ccc(-c2ccccc2)cc1,49 µM
6,CCC1CCC(=O)O1 (stereo unspecified),9900 µM
7,c1ccc2c(c1)CCO2,1200 µM
8,Cc1cc(C)c2ccccc2n1,2.4 µM
9,c1ccc2c(c1)CCC2,550 µM
10,Cc1ccc(CCN)cc1,14 µM
11,Cc1cccc2c(C)cccc12,42 µM
12,Cc1ccc2c(C)cccc2c1,25 µM
13,Cc1ccc2ccccc2c1,120 µM
14,c1ccc(-c2ccccc2)cc1 [BIPHENYL],160 µM
15,CCCCc1ccccc1 [BUTYLBENZYL],3700 µM
16,Fc1ccc2ccccc2c1,49 µM
17,COc1ccc(C=O)cc1,270 µM

row,Structure (SMILES),IC50
1,Clc1ccccc1-c1ccccc1,230 µM
2,O=c1[nH]c2ccccc2o1 [BENZOXAZOLINONE],370 µM
3,CN1CCC[C@@H]1c1cccnc1 [R-NICOTINE],4100 µM
4,O=C1Cc2ccccc2O1,260 µM
5,Cc1ccc2ccccc2n1 [QUINALDINE],40 µM
6,Cc1cnc2ccccc2c1,13 µM
7,Cc1ccc2cc(C)ccc2c1,52 µM
8,Cc1ccc(C)c2ccccc12,3.6 µM
9,"CN1C(=O)CCC1c1cccnc1 (single isomer, unassigned) [COTININE]",5400 µM
10,Cc1ccc2ccc(C)cc2c1,65 µM
11,Oc1ccc2ccccc2c1 [BETANAPHTHOL],17 µM
12,Cc1cc(C)oc(=O)c1,4500 µM
13,Cc1ccc2cccc(C)c2c1,7.5 µM
14,c1ccc2ccccc2c1,700 µM
15,Clc1cccc2ccccc12,50 µM
16,O=C1CCC(c2ccccc2)O1 (stereo unspecified),2300 µM
17,Oc1cccc2ccccc12 [1-NAPHTHOL],3.2 µM

# Same assay, conditions: human, recombinant human CYP1A2
row,Structure (SMILES),IC50
1,O=C1CCCCCO1,> 40000 µM
2,COC1=CC(=O)OC1,> 40000 µM
